Data from patent US20090221603A1, “HETEROCYCLIC AMIDE DERIVATIVES AS CALCIUM CHANNEL BLOCKERS” (priority 2005, published 2009).
Read-outs that look alike come from different tables or passages of the source.

What was measured:
[1] = target: T1, rat brain N-type calcium channel subunits (α1B+α2δ+β1b cDNA subunits) (Rattus norvegicus, UniProt Q02294); assay: N-type calcium channel block, whole cell patch clamp in HEK 293 cells; format: cell-based; settings: holding potential −80 mV to +10 mV
T1 construct: expressed in transfected cells; host or cells: HEK 293 (stably, alternatively transiently, transfected)
T1 sequence (Q02294 whole entry): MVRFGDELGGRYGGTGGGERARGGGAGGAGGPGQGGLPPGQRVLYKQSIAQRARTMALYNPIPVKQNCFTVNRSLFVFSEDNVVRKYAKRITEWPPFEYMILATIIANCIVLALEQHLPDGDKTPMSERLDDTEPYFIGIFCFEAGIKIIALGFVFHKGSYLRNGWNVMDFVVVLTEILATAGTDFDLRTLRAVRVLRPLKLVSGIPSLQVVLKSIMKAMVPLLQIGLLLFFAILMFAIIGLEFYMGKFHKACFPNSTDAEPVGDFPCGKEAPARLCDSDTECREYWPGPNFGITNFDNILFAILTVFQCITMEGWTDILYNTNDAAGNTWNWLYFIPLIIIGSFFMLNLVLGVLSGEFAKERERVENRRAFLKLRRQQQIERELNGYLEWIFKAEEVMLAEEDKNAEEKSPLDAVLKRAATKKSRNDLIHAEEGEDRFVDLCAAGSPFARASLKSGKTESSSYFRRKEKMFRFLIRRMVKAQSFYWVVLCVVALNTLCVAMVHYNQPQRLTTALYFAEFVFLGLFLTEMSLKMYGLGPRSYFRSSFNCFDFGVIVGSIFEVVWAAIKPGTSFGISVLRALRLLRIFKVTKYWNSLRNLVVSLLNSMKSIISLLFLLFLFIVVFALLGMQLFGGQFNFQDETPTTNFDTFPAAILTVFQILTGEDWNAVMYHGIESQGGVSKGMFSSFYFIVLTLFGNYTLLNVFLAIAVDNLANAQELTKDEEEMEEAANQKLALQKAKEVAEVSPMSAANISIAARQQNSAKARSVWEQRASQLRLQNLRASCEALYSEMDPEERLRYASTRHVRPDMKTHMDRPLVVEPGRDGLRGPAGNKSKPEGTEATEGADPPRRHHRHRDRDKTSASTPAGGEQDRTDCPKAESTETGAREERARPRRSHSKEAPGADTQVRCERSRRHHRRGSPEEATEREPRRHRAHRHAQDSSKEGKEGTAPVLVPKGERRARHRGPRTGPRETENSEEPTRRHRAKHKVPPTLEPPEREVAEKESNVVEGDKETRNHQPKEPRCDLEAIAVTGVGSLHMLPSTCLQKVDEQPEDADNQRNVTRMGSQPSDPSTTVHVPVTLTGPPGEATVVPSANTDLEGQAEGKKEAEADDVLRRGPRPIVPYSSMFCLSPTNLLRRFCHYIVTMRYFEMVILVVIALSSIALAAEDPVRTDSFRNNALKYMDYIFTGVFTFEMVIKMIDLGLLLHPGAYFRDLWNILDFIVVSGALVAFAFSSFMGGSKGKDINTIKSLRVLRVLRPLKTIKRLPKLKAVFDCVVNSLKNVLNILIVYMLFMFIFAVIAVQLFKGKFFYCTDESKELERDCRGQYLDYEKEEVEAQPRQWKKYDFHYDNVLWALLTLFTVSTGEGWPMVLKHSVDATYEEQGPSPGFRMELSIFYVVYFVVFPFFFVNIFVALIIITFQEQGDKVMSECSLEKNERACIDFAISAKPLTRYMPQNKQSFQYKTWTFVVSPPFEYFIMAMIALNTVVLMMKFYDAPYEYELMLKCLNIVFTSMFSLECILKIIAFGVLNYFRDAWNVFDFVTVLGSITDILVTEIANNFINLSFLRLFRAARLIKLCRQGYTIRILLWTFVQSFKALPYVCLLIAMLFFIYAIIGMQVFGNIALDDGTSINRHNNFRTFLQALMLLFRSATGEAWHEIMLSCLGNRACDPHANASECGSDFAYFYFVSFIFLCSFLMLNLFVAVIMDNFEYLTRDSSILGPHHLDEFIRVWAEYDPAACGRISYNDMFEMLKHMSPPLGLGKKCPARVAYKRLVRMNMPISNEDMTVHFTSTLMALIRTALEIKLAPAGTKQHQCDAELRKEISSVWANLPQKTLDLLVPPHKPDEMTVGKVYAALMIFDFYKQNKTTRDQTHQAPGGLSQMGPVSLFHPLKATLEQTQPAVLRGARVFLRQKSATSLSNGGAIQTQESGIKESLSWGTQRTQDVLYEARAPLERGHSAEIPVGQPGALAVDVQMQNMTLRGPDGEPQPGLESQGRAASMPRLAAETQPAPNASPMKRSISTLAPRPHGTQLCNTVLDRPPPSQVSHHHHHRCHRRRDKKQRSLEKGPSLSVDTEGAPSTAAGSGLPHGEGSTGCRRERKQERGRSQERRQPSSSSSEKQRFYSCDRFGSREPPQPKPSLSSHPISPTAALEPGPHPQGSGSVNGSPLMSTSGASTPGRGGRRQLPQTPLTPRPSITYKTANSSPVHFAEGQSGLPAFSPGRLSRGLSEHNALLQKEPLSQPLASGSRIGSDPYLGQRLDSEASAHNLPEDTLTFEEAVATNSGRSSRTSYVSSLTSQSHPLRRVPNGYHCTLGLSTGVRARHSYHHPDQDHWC
T1 sequence (P54290 25-944 partner limits assumed): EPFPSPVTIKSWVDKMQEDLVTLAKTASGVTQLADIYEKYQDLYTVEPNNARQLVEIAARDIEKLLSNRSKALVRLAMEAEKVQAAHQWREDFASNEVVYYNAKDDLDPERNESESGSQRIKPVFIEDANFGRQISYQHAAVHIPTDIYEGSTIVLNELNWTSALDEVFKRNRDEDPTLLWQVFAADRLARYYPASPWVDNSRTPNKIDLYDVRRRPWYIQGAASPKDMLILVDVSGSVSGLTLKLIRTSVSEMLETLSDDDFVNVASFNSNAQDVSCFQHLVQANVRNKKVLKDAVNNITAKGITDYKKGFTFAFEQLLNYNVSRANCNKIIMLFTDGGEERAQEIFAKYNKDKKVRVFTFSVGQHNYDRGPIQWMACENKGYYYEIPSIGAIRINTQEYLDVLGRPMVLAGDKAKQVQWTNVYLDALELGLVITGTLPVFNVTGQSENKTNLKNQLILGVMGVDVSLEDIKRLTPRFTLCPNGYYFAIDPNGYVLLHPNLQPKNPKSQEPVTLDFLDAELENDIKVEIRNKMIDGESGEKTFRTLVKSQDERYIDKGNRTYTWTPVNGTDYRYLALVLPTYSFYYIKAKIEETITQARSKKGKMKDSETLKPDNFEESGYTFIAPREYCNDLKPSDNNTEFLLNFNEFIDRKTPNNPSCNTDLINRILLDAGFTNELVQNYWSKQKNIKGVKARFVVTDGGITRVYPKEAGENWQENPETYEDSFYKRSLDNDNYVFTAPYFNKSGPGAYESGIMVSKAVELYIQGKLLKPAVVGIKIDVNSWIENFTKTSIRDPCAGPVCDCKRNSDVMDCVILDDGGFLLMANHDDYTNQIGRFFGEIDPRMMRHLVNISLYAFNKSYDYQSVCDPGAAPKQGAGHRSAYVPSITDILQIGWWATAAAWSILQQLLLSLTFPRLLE
T1 sequence (P54290 945-1091 partner limits assumed): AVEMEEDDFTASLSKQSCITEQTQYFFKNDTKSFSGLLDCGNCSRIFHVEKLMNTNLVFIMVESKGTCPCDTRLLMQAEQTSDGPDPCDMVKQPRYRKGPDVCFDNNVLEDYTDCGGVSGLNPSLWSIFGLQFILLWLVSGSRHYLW
T1 sequence (P54283 whole entry partner): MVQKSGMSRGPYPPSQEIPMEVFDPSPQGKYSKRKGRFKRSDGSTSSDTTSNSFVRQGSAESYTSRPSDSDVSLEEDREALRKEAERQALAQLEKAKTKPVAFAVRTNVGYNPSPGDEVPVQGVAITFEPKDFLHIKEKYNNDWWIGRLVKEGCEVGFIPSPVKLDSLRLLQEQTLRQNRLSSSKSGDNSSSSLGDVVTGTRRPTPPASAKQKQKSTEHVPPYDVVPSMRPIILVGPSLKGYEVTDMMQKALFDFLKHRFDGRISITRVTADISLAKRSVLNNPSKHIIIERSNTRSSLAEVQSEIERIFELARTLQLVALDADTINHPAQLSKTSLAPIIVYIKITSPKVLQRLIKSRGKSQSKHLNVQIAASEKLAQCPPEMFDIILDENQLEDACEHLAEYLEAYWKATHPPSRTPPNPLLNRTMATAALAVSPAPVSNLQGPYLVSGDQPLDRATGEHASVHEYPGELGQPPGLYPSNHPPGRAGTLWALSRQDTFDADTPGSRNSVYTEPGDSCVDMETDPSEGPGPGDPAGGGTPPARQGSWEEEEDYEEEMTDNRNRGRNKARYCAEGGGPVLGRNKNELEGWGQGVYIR
Method: A. Transformation of HEK Cells: • N-type calcium channel blocking activity was assayed in human embryonic kidney cells, HEK 293, stably transfected with the rat brain N-type calcium channel subunits (α1B+α2δ+β1b cDNA subunits). Alternatively, N-type calcium channels (α1B+α2δ+β1b cDNA subunits), L-type channels (α1C+α2δ+β1b cDNA subunits) and P/Q-type channels (α1A+α2δ+β1b cDNA subunits) were transiently expressed in HEK 293 cells. Briefly, cells were cultured in Dulbecco's modified eagle medium (DMEM) supplemented with 10% fetal bovine serum, 200 U/ml penicillin and 0.2 mg/ml streptomycin at 37° C. with 5% CO2. At 85% confluency cells were split with 0.25% trypsin/1 mM EDTA and plated at 10% confluency on glass coverslips. At 12 hours the medium was replaced and the cells transiently transfected using a standard calcium phosphate protocol and the appropriate calcium channel cDNA's. Fresh DMEM was supplied and the cells transferred to 28° C./5% CO2. Cells were incubated for 1 to 2 days prior to whole cell recording.
B. Measurement of Inhibition
Whole cell patch clamp experiments were performed using an Axopatch 200B amplifier (Axon Instruments, Burlingame, Calif.) linked to a personal computer equipped with pCLAMP software. The external and internal recording solutions contained, respectively, 5 mM BaCl2, 10 mM MgCl2, 10 mM HEPES, 40 mM TEACl, 10 mM glucose, 87.5 mM CsCl (pH 7.2) and 108 mM CsMS, 4 mM MgCl2, 9 mM EGTA, 9 mM HEPES (pH 7.2). Currents were typically elicited from a holding potential of −80 mV to +10 mV using Clampex software (Axon Instruments). Typically, currents were first elicited with low frequency stimulation (0.067 Hz) and allowed to stabilize prior to application of the compounds. The compounds were then applied during the low frequency pulse trains for two to three minutes to assess tonic block, and subsequently the pulse frequency was increased to 0.2 Hz to assess frequency dependent block. Data were analyzed using Clampfit (Axon Instruments) and SigmaPlot 4.0 (Jandel Scientific).

[2] = target: T2, human α1G T-type channels (Homo sapiens, UniProt O43497); assay: T-type calcium channel block, patch clamp in HEK cell lines; format: cell-based; settings: mainly non-inactivated protocol; HEK cells expressing human α1G; read-out: IC50 @ −80 mV
T2 construct: expressed in transfected cells

[3] = low frequency stimulation 0.067 Hz (tonic block), read-out: IC50 @ 0.067 Hz
[4] = pulse frequency 0.2 Hz (frequency dependent block), read-out: IC50 @ 0.2 Hz

SMILES	IC50 [1, 3]	IC50 [1, 4]	IC50 [2]
O=C(C[S+]([O-])C(c1ccccc1)c1ccccc1)N1CCN(C(c2ccc(F)cc2)c2ccc(F)cc2)CC1 (stereo not shown) [Compound 48, 2-(benzhydrylsulfinyl)-1-(4-(bis(4-fluorophenyl)methyl)piperazin-1-yl)ethanone]	220 nM	160 nM	310 nM
CC1CN(CC2CCOCC2)CC(C)N1C(=O)C[S+]([O-])C(c1ccccc1)c1ccccc1 (stereo not shown) [Compound 34, 2-(benzhydrylsulfinyl)-1-(2,6-dimethyl-4-((tetrahydro-2H-pyran-4-yl)methyl)piperazin-1-yl)ethanone]	> 6600 nM	> 4700 nM	
O=C(CSC(c1ccccc1)c1ccccc1)N1CCN(C(c2ccc(F)cc2)c2ccc(F)cc2)CC1 [Compound 47, 2-(benzhydrylthio)-1-(4-(bis(4-fluorophenyl)methyl)piperazin-1-yl)ethanone]	4920 nM	3230 nM	
COCC1CN(C(=O)C[S+]([O-])C(c2ccccc2)c2ccccc2)CCN1C(c1ccccc1)c1ccccc1 (stereo not shown) [Compound 56, 1-(4-benzhydryl-3-methoxymethylpiperazin-1-yl)-2-(benzhydrylsulfinyl)ethanone]	180 nM	130 nM	
O=C(CSC(c1ccccc1)c1ccccc1)N1CCN(C(c2ccccc2)c2ccccc2)CC1 [Compound 44, 1-(4-benzhydrylpiperazin-1-yl)-2-(benzhydrylthio)ethanone]	600 nM	270 nM	
CN(CC(=O)N1CCN(C(c2ccccc2)c2ccccc2Cl)CC1)C(c1ccccc1)c1ccccc1 (stereo not shown) [Compound 5, 2-benzhydryl(methyl)amino-1-(4-((2-chlorophenyl)(phenyl)methyl)piperazin-1-yl)ethanone]	> 4670 nM	> 2940 nM	
CN1CCC(C(c2ccccc2)N2CCN(C(=O)CN(C)C(c3ccccc3)c3ccccc3)CC2)CC1 (stereo not shown) [Compound 14, 2-benzhydryl(methyl)amino-1-(4-((1-methylpiperidin-4-yl)(phenyl)methyl)piperazin-1-yl)ethanone]	550 nM	440 nM	
O=C(COC(c1ccccc1)c1ccccc1)N1CCN(CC2CCOCC2)CC1 [Compound 35, 2-(benzhydryloxy)-1-(4-((tetrahydro-2H-pyran-4-yl)methyl)piperazin-1-yl)ethanone]	8300 nM	1300 nM	
O=C(C[S+]([O-])C(c1ccccc1)c1ccccc1)N1CCN(C(c2ccccc2)c2ccccc2)CC1 (stereo not shown) [Compound 45, 1-(4-benzhydrylpiperazin-1-yl)-2-(benzhydrylsulfinyl)ethanone]	290 nM	200 nM	
O=C(CNc1ccc(Cl)cc1)N1CCN(C(c2ccccc2)c2ccccc2)CC1 [Compound 17, 1-(4-benzhydrylpiperazin-1-yl)-2-(4-chlorophenylamino)ethanone]	> 7600 nM	> 4600 nM	
COCC1CN(C(=O)COC(c2ccccc2)c2ccccc2)CCN1C(c1ccccc1)c1ccccc1 (stereo not shown) [Compound 54, 2-(benzhydryloxy)-1-(4-benzhydryl-3-methoxymethylpiperazin-1-yl)ethanone]	330 nM	210 nM	
O=C(C[S+]([O-])C(c1ccccc1)c1ccccc1)N1CCN(C(c2ccccc2)c2ccccc2)C(CO)C1 (stereo not shown) [Compound 52, 1-(4-benzhydryl-3-hydroxymethylpiperazin-1-yl)-2-(benzhydrylsulfinyl)ethanone]	1230 nM	970 nM	
CC1CN(CC2CCOCC2)CC(C)N1C(=O)COC(c1ccccc1)c1ccccc1 (stereo not shown) [Compound 32, 2-(benzhydryloxy)-1-(2,6-dimethyl-4-((tetrahydro-2H-pyran-4-yl)methyl)piperazin-1-yl)ethanone]	1000 nM	640 nM	
O=C(CNc1cccc(Cl)c1)N1CCN(C(c2ccccc2)c2ccccc2)CC1 [Compound 18, 1-(4-benzhydrylpiperazin-1-yl)-2-(3-chlorophenylamino)ethanone]	1290 nM	1030 nM	
CN1CCC(CN2CCN(C(=O)C[S+]([O-])C(c3ccccc3)c3ccccc3)CC2)CC1 (stereo not shown) [Compound 43, 2-(benzhydrylsulfinyl)-1-(4-((1-methylpiperidin-4-yl)methyl)piperazin-1-yl)ethanone]	4260 nM	1340 nM	

Further lines, results first:

IC50 [1, 3]	IC50 [1, 4]	IC50 [2]	SMILES
1240 nM	840 nM		CN(CC(=O)N1CCN(C(c2ccccc2)c2cccc(Cl)c2)CC1)C(c1ccccc1)c1ccccc1 (stereo not shown) [Compound 4, 2-benzhydryl(methyl)amino-1-(4-((3-chlorophenyl)(phenyl)methyl)piperazin-1-yl)ethanone]
920 nM	430 nM	350 nM	O=C(COC(c1ccccc1)c1ccccc1)N1CCN(C(c2ccc(F)cc2)c2ccc(F)cc2)CC1 [Compound 46, 2-(benzhydryloxy)-1-(4-(bis(4-fluorophenyl)methyl)piperazin-1-yl)ethanone]
250 nM	150 nM	490 nM	COCC1CN(C(=O)CNC(c2ccccc2)c2ccccc2)CCN1C(c1ccccc1)c1ccccc1 (stereo not shown) [Compound 53, 2-benzhydrylamino-1-(4-benzhydryl-3-methoxymethylpiperazin-1-yl)ethanone]
> 4970 nM	> 2640 nM		CN1CCC(C(=O)N2CCN(C(=O)CNC(c3ccccc3)c3ccccc3)CC2)CC1 [Compound 10, 2-benzhydrylamino-1-(4-(1-methylpiperidine-4-carbonyl)piperazin-1-yl)ethanone]
7400 nM	2070 nM		CN1CCC(CN2CCN(C(=O)CN(C)C(c3ccccc3)c3ccccc3)CC2)CC1 [Compound 12]
> 11800 nM	7920 nM		CN1CCC(C(=O)N2CCN(C(=O)CN(C)C(c3ccccc3)c3ccccc3)CC2)CC1 [Compound 11, 2-benzhydryl(methyl)amino-1-(4-(1-methylpiperidine-4-carbonyl)piperazin-1-yl)ethanone]
4000 nM	2500 nM		CN1CCC(CN2CCN(C(=O)CNC(c3ccccc3)c3ccccc3)CC2)CC1 [Compound 9]
2400 nM	980 nM		O=C(CNc1cc(Cl)cc(Cl)c1)N1CCN(C(c2ccccc2)c2ccccc2)CC1 [Compound 22, 1-(4-benzhydrylpiperazin-1-yl)-2-(3,5-dichlorophenylamino)ethanone]
9530 nM	4910 nM		O=C(CNC(c1ccccc1)c1ccccc1)N1CCN(CC2CCOCC2)CC1 [Compound 38, 2-(benzhydrylamino)-1-(4-((tetrahydro-2H-pyran-4-yl)methyl)piperazin-1-yl)ethanone]
4300 nM	800 nM		O=C(CNc1ccccc1)N1CCN(C(c2ccccc2)c2ccccc2)CC1 [Compound 16]
2450 nM	850 nM		CN(CC(=O)N1CCN(C(c2ccccc2)c2ccc(Cl)cc2)CC1)C(c1ccccc1)c1ccccc1 (stereo not shown) [Compound 3, 2-benzhydryl(methyl)amino-1-(4-((4-chlorophenyl)(phenyl)methyl)piperazin-1-yl)ethanone]
2300 nM	1500 nM		COc1cc(NCC(=O)N2CCN(C(c3ccccc3)c3ccccc3)CC2)cc(OC)c1OC [Compound 25, 1-(4-benzhydrylpiperazin-1-yl)-2-(3,4,5-trimethoxyphenylamino) ethanone]
1400 nM	700 nM		O=C(CNc1cc(F)cc(F)c1)N1CCN(C(c2ccccc2)c2ccccc2)CC1 [Compound 21, 1-(4-benzhydrylpiperazin-1-yl)-2-(3,5-difluorophenylamino)ethanone]
1460 nM	670 nM		CN(CC(=O)N1CCN(C(c2ccccc2)c2cccc(C(F)(F)F)c2)CC1)C(c1ccccc1)c1ccccc1 (stereo not shown) [Compound 7]
400 nM	230 nM		O=C(COC(c1ccccc1)c1ccccc1)N1CCN(C(c2ccccc2)c2ccccc2)C(CO)C1 (stereo not shown) [Compound 50, 2-(benzhydryloxy)-1-(4-benzhydryl-3-hydroxymethylpiperazin-1-yl)ethanone]
> 4800 nM	> 3200 nM		CN1CCC(CN2CCN(C(=O)COC(c3ccccc3)c3ccccc3)CC2)CC1 [Compound 41, 2-(benzhydryloxy)-1-(4-((1-methylpiperidin-4-yl)methyl)piperazin-1-yl)ethanone]
1200 nM	740 nM		Cc1cc(CN2CCN(C(=O)COC(c3ccccc3)c3ccccc3)CC2)cc(Cl)n1 [Compound 40, 2-(benzhydryloxy)-1-(4-((2-chloro-6-methylpyridin-4-yl)methyl)piperazin-1-yl)ethanone]
